Converted amounts (≈) assume the structure as drawn. “And” between values parts separate entries of the source, which are not always exact repeats. Equal entries are not always repeated. Structures can show the parent of a compound that is named as a salt. Where two headings read alike, the source gives them in different places. Bridge positions count the residues as written; N and C are the ends. Square brackets hold non-standard residues; d marks the D form. Peptide text beside a SMILES is read from it. * marks the point of attachment. Dab = NCC[C@H](N)C(=O)O; X3 = O=C([C@H]1CCCNC1)*
Legend:
K. pneumoniae = test: MIC against panel of strains enriched for resistance to colistin or polymyxin B (CLSI), alone or 1:1 with rifampicin; assay type: cell-based, Klebsiella pneumoniae; details: one value per strain of the panel
Protocol: (§1) […] For example, a well at 2 μg/mL consisted of 1 μg/mL test compound and 1 μg/mL rifampicin.
(§2) • where n indicates the number of strains within the panel for a particular organism.

Acinetobacter baumannii [1] = test: MIC, compound in combination with a second agent (broth microdilution); assay type: cell-based; details: 1:1 (wt:wt) combination with Rifampicin; for MIC: Acinetobacter baumannii
Outline: (§3)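 Equal-mass combos (compound in TFA or sulphate salt form plus second agent); direct colony suspension, 0.5 McFarland; duplicate wells; MIC expressed as summed concentration of both drugs.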

Pseudomonas aeruginosa [2] = test: as above; assay type: cell-based; details: 1:1 (wt:wt) combination with Rifampicin; for MIC: Pseudomonas aeruginosa
Outline: as §3

Escherichia coli [3] = test: as above; assay type: cell-based; details: 1:1 (wt:wt) combination with Rifampicin; for MIC: Escherichia coli
Outline: as §3

Klebsiella pneumoniae [4] = test: as above; assay type: cell-based; details: 1:1 (wt:wt) combination with Rifampicin; for MIC: Klebsiella pneumoniae
Outline: as §3

P. aeruginosa = test: MIC against panel of strains enriched for resistance to colistin or polymyxin B (CLSI), alone or 1:1 with rifampicin; assay type: cell-based, Pseudomonas aeruginosa; details: one value per strain of the panel
Protocol: as §1, §2

Acinetobacter baumannii [5] = test: MIC, sole activity (no second agent); assay type: cell-based; details: Table 6A; no second agent; different supplier of Cation-adjusted MHB
Outline: (§4)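 Inoculum: direct colony suspension (18-24 h MH agar), 0.5 McFarland. Medium: cation-adjusted MHB. Up to 4 strains/species; reported relative to Polymyxin B.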

Pseudomonas aeruginosa [6] = test: MIC, sole activity (no second agent); assay type: cell-based; details: Table 6A; no second agent; different supplier of Cation-adjusted MHB
Outline: as §4

Escherichia coli [7] = test: MIC, sole activity (no second agent); assay type: cell-based; details: Table 6A; no second agent; different supplier of Cation-adjusted MHB
Outline: as §4

Klebsiella pneumoniae [8] = test: MIC, sole activity (no second agent); assay type: cell-based; details: Table 6A; no second agent; different supplier of Cation-adjusted MHB
Outline: as §4

HK-2 cell line = test: In vitro renal cell toxicity assay (resazurin reduction); assay type: cell-based, human
P. aeruginosa ATCC27853 = assay type: in vivo, Pseudomonas aeruginosa; details: ATCC27853, in vivo, iv, 5 mg/kg, 6 h
Protocol: Compounds were administered in solution by intravenous (IV) bolus injection into the lateral tail vein. […] At 1 hour post infection, 4 animals were humanely euthanized using pentabarbitone overdose to provide a pre-treatment control group. At 9 hours post infection, the clinical condition of all animals was assessed prior to them being humanely euthanized by pentabarbitone overdose. Animal weight was determined before both thighs were removed and weighed individually. Individual thigh tissue samples were homogenized in ice cold sterile phosphate buffered saline. Thigh homogenates were then quantitatively cultured onto CLED agar and incubated at 37° C. for 24 hours before colonies were counted.

[9] = MIC is total drug concentration

Compound: CO[C@H]1/C=C/O[C@@]2(C)Oc3c(C)c(O)c4c(O)c(c(/C=N/N5CCN(C)CC5)c(O)c4c3C2=O)NC(=O)/C(C)=C\C=C\[C@H](C)[C@H](O)[C@@H](C)[C@@H](O)[C@@H](C)[C@H](OC(C)=O)[C@@H]1C [Rifampicin, reference compound]
- MIC (K. pneumoniae; Klebsiella pneumoniae, read-out: MIC Klebsiella pneumoniae (n = 11), agent alone): 16 µg/mL (≈ 19.4 µM)
- MIC Klebsiella pneumoniae (n = 11) (K. pneumoniae; agent alone): 32 micrograms/mL and > 32 micrograms/mL and >32, 32, 32, micrograms/mL and 32, 32, >32, micrograms/mL and >32, >32 micrograms/mL
- MIC (Acinetobacter baumannii [1]; ATCCBAA747, MIC = total drug concentration, strain ATCC BAA-747, read-out: MIC A. baumannii ATCC BAA-747): 2 µg/mL
- MIC (Acinetobacter baumannii [1]; NCTC13423, MIC = total drug concentration, strain NCTC 13423, read-out: MIC A. baumannii NCTC 13423): 1 µg/mL
- MIC (Acinetobacter baumannii [1]; NCTC13424, MIC = total drug concentration, strain NCTC 13424, read-out: MIC A. baumannii NCTC 13424): 1 µg/mL
- MIC (Acinetobacter baumannii [1]; MIC = total drug concentration, strain CCUG57249, read-out: MIC A. baumannii CCUG57249): 2 µg/mL
- MIC (Pseudomonas aeruginosa [2]; ATCC47, MIC = total drug concentration, strain ATCC-47, read-out: MIC P. aeruginosa ATCC-47): 16 µg/mL
- MIC (Pseudomonas aeruginosa [2]; ATCC27853, MIC = total drug concentration, strain ATCC 27853, read-out: MIC P. aeruginosa ATCC 27853): 16 µg/mL
- MIC (Pseudomonas aeruginosa [2]; CCUG59626, MIC = total drug concentration, strain CCUG 59626, read-out: MIC P. aeruginosa CCUG 59626): 16 µg/mL
- MIC (Pseudomonas aeruginosa [2]; MIC = total drug concentration, strain ATCC CRM-9027, read-out: MIC P. aeruginosa ATCC CRM-9027): 16 µg/mL
- MIC (Escherichia coli [3]; MIC = total drug concentration, strain ATCC25922, read-out: MIC E. coli ATCC25922): 4 µg/mL
- MIC (Escherichia coli [3]; MIC = total drug concentration, strain NCTC9001, read-out: MIC E. coli NCTC9001): 4 µg/mL
- MIC (Klebsiella pneumoniae [4]; ATCC4352, MIC = total drug concentration, strain ATCC 4352, read-out: MIC K. pneumoniae ATCC 4352): 8 µg/mL
- MIC (Klebsiella pneumoniae [4]; ATCCBAA2146, MIC = total drug concentration, strain ATCC-BAA-2146, read-out: MIC K. pneumoniae ATCC-BAA-2146): 16 µg/mL
- MIC (Klebsiella pneumoniae [4]; CCUG59348, MIC = total drug concentration, strain CCUG-59348, read-out: MIC K. pneumoniae CCUG-59348): 32 µg/mL
- MIC (Klebsiella pneumoniae [4]; NCTC13438, MIC = total drug concentration, strain NCTC 13438, read-out: MIC K. pneumoniae NCTC 13438): 16 µg/mL
- MIC (P. aeruginosa; Pseudomonas aeruginosa, read-out: MIC Pseudomonas aeruginosa (n = 6), agent alone): 32 µg/mL (≈ 38.9 µM)
- MIC Pseudomonas aeruginosa (n = 6) (P. aeruginosa; agent alone): 16 micrograms/mL and 32, 32, 32 micrograms/mL

Compound: CC(C)C[C@@H]1NC(=O)[C@@H](Cc2ccccc2)NC(=O)[C@H](CCN)NC(=O)[C@@H](NC(=O)[C@H](CCN)NC(=O)[C@@H](NC(=O)[C@H]2CCCNC2)[C@@H](C)O)CCNC(=O)[C@H]([C@@H](C)O)NC(=O)[C@H](CCN)NC(=O)[C@H](CCN)NC1=O [Example 37, (S)-Piperidine-3-carbonyl polymyxin B nonapeptide, trifluoroacetate salt] (X3-T[Dab][Dab][Dab][dF]L[Dab][Dab]T; lactam 3-C)
- MIC A. baumannii ATCC BAA-747 (Acinetobacter baumannii [5]): 2 micrograms/mL
- MIC A. baumannii NCTC 13424 (Acinetobacter baumannii [5]): 1 micrograms/mL
- MIC P. aeruginosa ATCC 27853 (Pseudomonas aeruginosa [6]): 0.5 micrograms/mL
- MIC P. aeruginosa CCUG 59347 (Pseudomonas aeruginosa [6]): 2 micrograms/mL
- MIC E. coli ATCC25922 (Escherichia coli [7]): 0.5 micrograms/mL
- MIC E. coli NCTC 13441 (Escherichia coli [7]): 0.5 micrograms/mL
- MIC K. pneumoniae ATCC 4352 (Klebsiella pneumoniae [8]): 0.25 micrograms/mL
- MIC K. pneumoniae ATCC BAA-2146 (Klebsiella pneumoniae [8]): 0.25 micrograms/mL
- HK-2 IC50 rel to PMB (HK-2 cell line): 21
- MIC A. baumannii ATCC BAA-747 (Acinetobacter baumannii [1]; MIC = total drug concentration, strain ATCC BAA-747): ≤0.06 micrograms/mL
- MIC A. baumannii CCUG57249 (Acinetobacter baumannii [1]; MIC = total drug concentration, strain CCUG57249): ≤0.06 micrograms/mL
- MIC A. baumannii NCTC 13423 (Acinetobacter baumannii [1]; MIC = total drug concentration, strain NCTC 13423): ≤0.06 micrograms/mL
- MIC A. baumannii NCTC 13424 (Acinetobacter baumannii [1]; MIC = total drug concentration, strain NCTC 13424): ≤0.06 micrograms/mL
- MIC A. baumannii ATCC BAA-747 (Acinetobacter baumannii [1]; [9]): ≤0.06 micrograms/mL
- MIC A. baumannii CCUG57249 (Acinetobacter baumannii [1]; [9]): ≤0.06 micrograms/mL
- MIC A. baumannii NCTC 13423 (Acinetobacter baumannii [1]; [9]): ≤0.06 micrograms/mL
- MIC A. baumannii NCTC 13424 (Acinetobacter baumannii [1]; [9]): ≤0.06 micrograms/mL
- MIC P. aeruginosa ATCC 27853 (Pseudomonas aeruginosa [2]; MIC = total drug concentration, strain ATCC 27853): ≤0.06 micrograms/mL
- MIC P. aeruginosa ATCC CRM-9027 (Pseudomonas aeruginosa [2]; MIC = total drug concentration, strain ATCC CRM-9027): 0.125 micrograms/mL
- MIC P. aeruginosa ATCC-47 (Pseudomonas aeruginosa [2]; MIC = total drug concentration, strain ATCC-47): ≤0.06 micrograms/mL
- MIC P. aeruginosa CCUG 59626 (Pseudomonas aeruginosa [2]; MIC = total drug concentration, strain CCUG 59626): ≤0.06 micrograms/mL
- MIC P. aeruginosa ATCC 27853 (Pseudomonas aeruginosa [2]; [9]): ≤0.06 micrograms/mL
- MIC P. aeruginosa ATCC CRM-9027 (Pseudomonas aeruginosa [2]; [9]): 0.125 micrograms/mL
- MIC P. aeruginosa ATCC-47 (Pseudomonas aeruginosa [2]; [9]): ≤0.06 micrograms/mL
- MIC P. aeruginosa CCUG 59626 (Pseudomonas aeruginosa [2]; [9]): ≤0.06 micrograms/mL
- MIC E. coli ATCC25922 (Escherichia coli [3]; MIC = total drug concentration, strain ATCC25922): 0.125 micrograms/mL
- MIC E. coli NCTC9001 (Escherichia coli [3]; MIC = total drug concentration, strain NCTC9001): ≤0.06 micrograms/mL
- MIC E. coli ATCC25922 (Escherichia coli [3]; [9]): 0.125 micrograms/mL
- MIC E. coli NCTC9001 (Escherichia coli [3]; [9]): ≤0.06 micrograms/mL
- MIC K. pneumoniae ATCC-BAA-2146 (Klebsiella pneumoniae [4]; MIC = total drug concentration, strain ATCC-BAA-2146): 0.125 micrograms/mL
- MIC K. pneumoniae CCUG-59348 (Klebsiella pneumoniae [4]; MIC = total drug concentration, strain CCUG-59348): 2 micrograms/mL
- MIC K. pneumoniae NCTC 13438 (Klebsiella pneumoniae [4]; MIC = total drug concentration, strain NCTC 13438): 0.125 micrograms/mL
- MIC K. pneumoniae ATCC-BAA-2146 (Klebsiella pneumoniae [4]; [9]): 0.125 micrograms/mL
- MIC K. pneumoniae CCUG-59348 (Klebsiella pneumoniae [4]; [9]): 2 micrograms/mL
- MIC K. pneumoniae NCTC 13438 (Klebsiella pneumoniae [4]; [9]): 0.125 micrograms/mL
- log reduction in bacterial counts compared to non-treated control (P. aeruginosa ATCC27853): 1.75 log

Source: patent US10407467B2, “Polymyxin derivatives and their use in combination therapy together with different antibiotics” (priority 2013, dated 2019)
